Results as given in paper PMC10279527, “Structural basis of metabolite transport by the chloroplast outer envelope channel OEP21” (Nature Structural & Molecular Biology, 2023).

Biological target: OEP21 (Pisum sativum, UniProt Q9SM57)
Assay: CD-detected thermal melting of OEP21 in presence of metabolites
Assay type: binding, garden pea
Design: made in house
Conditions: for raw CD / rel CD: 500 uM; for Melting point: ED Fig. 4a

Chain of OEP21 (Q9SM57 whole entry): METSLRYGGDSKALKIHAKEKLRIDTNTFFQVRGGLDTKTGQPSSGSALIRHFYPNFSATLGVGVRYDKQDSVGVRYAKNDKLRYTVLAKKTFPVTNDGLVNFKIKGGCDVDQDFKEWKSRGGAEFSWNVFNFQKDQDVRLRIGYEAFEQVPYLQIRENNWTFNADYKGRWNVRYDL

With O=C[C@H](O)COP(=O)(O)O [GAP, D-glyceraldehyde-3-phosphate] the “raw CD” value (22.5 °C) was -23.3707, the “rel CD” value (22.5 °C) was 0.97 and the “raw CD” value (23 °C) was -23.5919. The “rel CD” value (23 °C) was 0.9806, the “raw CD” value (23.5 °C) was -24.399 and the “rel CD” value (23.5 °C) was 1.019. For the same molecule, the “raw CD” value (24 °C) was -24.3596, the “rel CD” value (24 °C) was 1.017 and the “raw CD” value (25 °C) was -24.3798. For the same molecule, the “rel CD” value (25 °C) was 1.018, the “raw CD” value (26 °C) was -24.239 and the “rel CD” value (26 °C) was 1.011. For the same molecule, the “raw CD” value (27 °C) was -24.36, the “rel CD” value (27 °C) was 1.017 and the “raw CD” value (28 °C) was -24.2279. For the same molecule, the “rel CD” value (28 °C) was 1.011, the “raw CD” value (28.5 °C) was -24.3095 and the “rel CD” value (28.5 °C) was 1.015. The “raw CD” value (29 °C) was -23.5401, the “rel CD” value (29 °C) was 0.9781 and the “raw CD” value (30 °C) was -23.385. The “rel CD” value (30 °C) was 0.9707, the “raw CD” value (31 °C) was -24.0555 and the “rel CD” value (31 °C) was 1.003. The “raw CD” value (32 °C) was -24.3068, the “rel CD” value (32 °C) was 1.015 and the “raw CD” value (33 °C) was -24.4089. The “rel CD” value (33 °C) was 1.019, the “raw CD” value (34 °C) was -23.805 and the “rel CD” value (34 °C) was 0.9907. The “raw CD” value (35 °C) was -24.5097, the “rel CD” value (35 °C) was 1.024 and the “raw CD” value (36 °C) was -24.0481. The “rel CD” value (36 °C) was 1.002, the “raw CD” value (37 °C) was -23.8199 and the “rel CD” value (37 °C) was 0.9914. For the same molecule, the “raw CD” value (38 °C) was -23.8252, the “rel CD” value (38 °C) was 0.9917 and the “raw CD” value (39 °C) was -23.7051. For the same molecule, the “rel CD” value (39 °C) was 0.986, the “raw CD” value (68 °C) was -6.585 and the “rel CD” value (68 °C) was 0.1707. For the same molecule, the “raw CD” value (68.5 °C) was -6.193, the “rel CD” value (68.5 °C) was 0.1521 and the “raw CD” value (69 °C) was -6.288. For the same molecule, the “rel CD” value (69 °C) was 0.1566, the “raw CD” value (70 °C) was -5.958 and the “rel CD” value (70 °C) was 0.1409. For the same molecule, the “raw CD” value (70.5 °C) was -5.84, the “rel CD” value (70.5 °C) was 0.1352 and the “raw CD” value (71 °C) was -5.586. The “rel CD” value (71 °C) was 0.1232, the “raw CD” value (71.5 °C) was -5.682 and the “rel CD” value (71.5 °C) was 0.1277. For the same molecule, the “raw CD” value (72 °C) was -5.192, the “rel CD” value (72 °C) was 0.1044 and the “raw CD” value (73 °C) was -5.167. The “rel CD” value (73 °C) was 0.1032, the “raw CD” value (74 °C) was -4.493 and the “rel CD” value (74 °C) was 0.07111. For the same molecule, the “raw CD” value (74.5 °C) was -4.638, the “rel CD” value (74.5 °C) was 0.078 and the “raw CD” value (75 °C) was -4.942. The “rel CD” value (75 °C) was 0.09249, the “raw CD” value (75.5 °C) was -4.618 and the “rel CD” value (75.5 °C) was 0.07706. The “raw CD” value (76 °C) was -4.509, the “rel CD” value (76 °C) was 0.07187 and the “raw CD” value (77 °C) was -4.747. For the same molecule, the “rel CD” value (77 °C) was 0.0832, the “raw CD” value (77.5 °C) was -4.466 and the “rel CD” value (77.5 °C) was 0.06981. For the same molecule, the “raw CD” value (78 °C) was -4.843, the “rel CD” value (78 °C) was 0.08778 and the “raw CD” value (78.5 °C) was -4.206. For the same molecule, the “rel CD” value (78.5 °C) was 0.05742, the “raw CD” value (79 °C) was -3.995 and the “rel CD” value (79 °C) was 0.0474. The “raw CD” value (79.5 °C) was -4.497, the “rel CD” value (79.5 °C) was 0.07129 and the “raw CD” value (80 °C) was -4.058. The “rel CD” value (80 °C) was 0.05036, the “raw CD” value (81 °C) was -4.059 and the “rel CD” value (81 °C) was 0.05042. The “raw CD” value (82 °C) was -4.217, the “rel CD” value (82 °C) was 0.05795 and the “raw CD” value (82.5 °C) was -4.026. For the same molecule, the “rel CD” value (82.5 °C) was 0.04886, the “raw CD” value (83 °C) was -4.494 and the “rel CD” value (83 °C) was 0.07116. For the same molecule, the “raw CD” value (83.5 °C) was -4.549, the “rel CD” value (83.5 °C) was 0.07377 and the “raw CD” value (84 °C) was -4.1838. For the same molecule, the “rel CD” value (84 °C) was 0.05637, the “raw CD” value (85 °C) was -3.693 and the “rel CD” value (85 °C) was 0.03299. For the same molecule, the “raw CD” value (86 °C) was -3.539, the “rel CD” value (86 °C) was 0.02569 and the “raw CD” value (87 °C) was -3.736. For the same molecule, the “rel CD” value (87 °C) was 0.03505, the “raw CD” value (87.5 °C) was -3.636 and the “rel CD” value (87.5 °C) was 0.03029. The “raw CD” value (88 °C) was -3.641, the “rel CD” value (88 °C) was 0.03053 and the “raw CD” value (88.5 °C) was -3.975. For the same molecule, the “rel CD” value (88.5 °C) was 0.04642, the “raw CD” value (89 °C) was -3.567 and the “rel CD” value (89 °C) was 0.02702. The “raw CD” value (90 °C) was -3.821, the “rel CD” value (90 °C) was 0.03908 and the “raw CD” value (90.5 °C) was -3.627. The “rel CD” value (90.5 °C) was 0.02984, the “raw CD” value (91 °C) was -4.011 and the “rel CD” value (91 °C) was 0.04814. The “raw CD” value (91.5 °C) was -3.609, the “rel CD” value (91.5 °C) was 0.02901 and the “raw CD” value (92 °C) was -3.4371. The “rel CD” value (92 °C) was 0.02081, the “raw CD” value (93 °C) was -3.657 and the “rel CD” value (93 °C) was 0.03128. The “raw CD” value (94 °C) was -3.717, the “rel CD” value (94 °C) was 0.03414 and the “raw CD” value (95 °C) was -3.854. The “rel CD” value (95 °C) was 0.04065, the “raw CD” value (96 °C) was -3.335 and the “rel CD” value (96 °C) was 0.01596. For the same molecule, the “raw CD” value (97 °C) was -3.649, the “rel CD” value (97 °C) was 0.0309 and the “raw CD” value (98 °C) was -3.661. The “rel CD” value (98 °C) was 0.03146, the “raw CD” value (99 °C) was -3.437 and the “rel CD” value (99 °C) was 0.0208. For the same molecule, the “raw CD” value (100 °C) was -3.04, the “rel CD” value (100 °C) was 0.001918 and the Melting point (OEP21 with 0.5 mM metabolite, CD at 215 nm, Apo 58.5) was 59.2 ｡C. For the same molecule, the Melting point (OEP21 with 1 mM GAP) was 60.2 ｡C.
